What is called pEC50 is the negative decadic logarithm of the EC50, by convention in mol/L. One may read the pIC50 as the negative decadic logarithm of the IC50, by convention in mol/L. A low value points to a high IC50.

pEC50, pIC50: −log10 of the molar value. Activity calls are given as the source filed them.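 The calls were made as follows: active = compounds giving half or more protection of infected cells from virus-caused growth loss, again on retest; inactive = the rest.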

The test system of this assay is CEM cells HIV-1 protection, formazan growth assay. In words: NCI AIDS Antiviral Assay. Conditions: for pIC50: measured here: growth of uninfected CEM cells. The gist of the method:
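Five concentrations of each compound were applied to infected and uninfected human CEM cells. Protection from HIV-1 was judged from growth measured with a soluble formazan assay.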

For the compound `COc1ccc(NC(C)=O)c(Cl)c1`, the pEC50 was less than 2.90 and the negative-log IC50 (pIC50) was less than 2.90.

As to `CCC(=O)OC1(c2ccccc2)CCN(CCC(=O)c2ccccc2)CC1C` (stereo not drawn), the pEC50 was less than 3.70 and the pIC50 is 5.02.

In the case of `CN(C)c1ccc2c(c1)-c1cc(N(C)C)ccc1C2=CC=C1C(=O)NC(=S)NC1=O`, the pEC50 was less than 4.91 and the pIC50 was less than 4.91.

For `Cn1cc(C(=O)/C(Cl)=C(\Cl)C(=O)O)c2ccccc21`, the outcome was inactive.

For `CCOC(=O)CCC1(C(=O)OCC)CCCC1=O` (stereo not drawn), the pEC50 was less than 3.58 and the negative logarithm of the IC50 (pIC50) was less than 3.58.

On to `COc1ccc(C2S/C(=C\c3cccc(OC)c3)C(=O)N2NC(=O)Cc2ccccc2)cc1` (stereo not drawn), for which the pEC50 was less than 3.97 and the pIC50 is less than 3.97.

In the case of `CCN=C(CC(=O)C12CC3CC(CC(C3)C1)C2)N(CC)CC`, the outcome was inactive.

Regarding `CCOc1ccc(NC(=O)CC2SC(=Nc3ccc(C)cc3)NC2=O)cc1` (stereo not drawn), the pEC50 is less than 4.17 and the negative-log IC50 (pIC50) is less than 4.17.

`O=C(/C=C\c1ccc(Cl)c(Cl)c1)c1ccc(Cl)cc1Cl`: the pEC50 is less than 4.84 and the pIC50 was less than 4.84.

Regarding `N#CC(C#N)=CC=C1c2ccccc2Sc2ccccc21`, the pEC50 was less than 4.74 and the pIC50 was less than 4.74.

For `CCC1(CC)C(=O)N(C(=O)c2cc(OC)c(OC)c(OC)c2)N(C(=O)c2cc(OC)c(OC)c(OC)c2)C1=O`, the pEC50 is less than 3.70 and the pIC50 was 4.97.

Take `Cc1c(C(=O)C/C(=N/NC(=O)C[N+](C)(C)C)C(=O)Nc2ccc(Cl)cc2)[n+](=O)c2ccccc2n1O`: the pEC50 is less than 5.04 and the negative logarithm of the IC50 (pIC50) is less than 5.04.

Regarding `COC(=O)c1cc(CC2Cc3cc4c(cc3C2=O)CCC4)cc2c1CCC2` (stereo not drawn), the negative logarithm of the EC50 (pEC50) was 4.48 and the negative logarithm of the IC50 (pIC50) was less than 3.70.

On to `CC1(C)COC(Cc2ccccc2)=N1`, for which the pEC50 is less than 3.70 and the negative logarithm of the IC50 (pIC50) was less than 3.70.

Turning to `COC(=CN=Nc1nc(C#N)c(C#N)[nH]1)OC`, the pEC50 is less than 3.67 and the pIC50 was 3.79.

With `Cc1cn([C@H]2C(CO)[C@@H](CO)C2(C)C)c(=O)[nH]c1=O` (stereo partly drawn), the pEC50 is less than 3.03 and the pIC50 is less than 3.03.

In the case of `CCC/C(Cl)=N/OC(NC(=O)OCC)(C(F)(F)F)C(F)(F)F`, the pEC50 is less than 3.70 and the negative-log IC50 (pIC50) is 5.00.

As to `NCCNCCNCc1c2ccccc2c(CNCCNCCN)c2ccccc12`, the pEC50 is 5.23 and the pIC50 was 4.40.

On to `Nc1nc(=S)[nH]c(C(=O)Nc2nccs2)c1-c1ccccc1`, for which the pEC50 is less than 4.66 and the pIC50 was less than 4.66.

For `O=C(CS(=O)(=O)c1ccccc1)c1ccccc1`, the pEC50 was less than 3.46 and the pIC50 was 3.60.

Consider `Cc1n[n+](CC(=O)c2ccccc2)c2sc(N)nn12`, for which the pEC50 was less than 3.70 and the pIC50 was 3.88.

On to `Cc1ccc(C(O)/C(=N/N)c2nc3ccc([N+](=O)[O-])cc3[nH]c2=O)cc1` (stereo not drawn), for which the pEC50 is less than 3.27 and the negative-log IC50 (pIC50) was 3.34.

For `COc1ccc(-c2oc(=O)c3ccccc3c2-c2ccccc2)cc1`, the pEC50 is less than 4.80 and the pIC50 is less than 4.80.

Take `CCCCCCCC(=O)OCC1OC(OC)C(NC(=O)N(CCCl)N=O)C(O)C1O` (stereo not drawn): the pEC50 is less than 4.10 and the pIC50 was 5.07.

For the compound `CCC(NC(C)c1ccccc1)C(O)c1ccc(OCc2ccccc2)c(OCc2ccccc2)c1` (stereo not drawn), the pEC50 was less than 3.70 and the negative logarithm of the IC50 (pIC50) is 4.97.

With `CCN(CCCl)c1cc(CN(C)C)cc(NC(=O)c2ccc(C(=O)Nc3cc(CN(C)C)cc(N(CC)CCCl)c3)cc2)c1`, the pEC50 is less than 5.70 and the negative-log IC50 (pIC50) was 9.20.

For the compound `CCOC(=O)C(NC(=O)Nc1ccc(Cl)cc1)(OC)C(F)(F)F` (stereo not drawn), the result was inactive.

Turning to `CC(C)(Cc1ccccc1)N1C(=O)N1C(C)(C)Cc1ccccc1`, the pEC50 was less than 3.70 and the pIC50 is 4.54.

`O=C1C(Cl)C(c2ccc(O)cc2)N1n1cnc2ccccc2c1=O` (stereo not drawn): the pEC50 is less than 4.82 and the pIC50 is less than 4.82.

For the compound `COC(=O)C1=C(CS(=O)c2ccc([N+](=O)[O-])cc2[N+](=O)[O-])ON(C)C1c1ccccc1` (stereo not drawn), the outcome was inactive.

For `Cc1cc2ncn(C3CCCO3)c2cc1C` (stereo not drawn), the pEC50 is less than 3.70 and the pIC50 is less than 3.70.

Consider `COC(=O)C(NC(=O)C(CC(=O)OC(C)(C)C)NC(=O)OC(C)(C)C)C(O)c1ccccc1` (stereo not drawn), for which the pEC50 is less than 3.70 and the pIC50 is less than 3.70.

On to `COc1cc2c3c(c1OC)-c1cc4c(cc1CC3(C#N)N(C(=O)c1ccccc1)CC2)OCO4` (stereo not drawn), for which the outcome was inactive.

Consider `O=C1OC(c2ccccc2)N(C(=O)c2ccccc2)C1Cc1ccc(OCc2ccccc2)cc1` (stereo not drawn), for which the pEC50 was less than 3.70 and the pIC50 was 4.07.

For the compound `CCC(C)(C)C1CCC2c3c([nH]c4ccccc34)C3C(=O)N(c4ccc(OC)cc4)C(=O)C3C2C1` (stereo not drawn), the pEC50 is less than 3.70 and the negative-log IC50 (pIC50) was 5.11.

In the case of `O=C(c1cccc(C(=O)N(c2ccccc2)c2ccccc2)n1)N(c1ccccc1)c1ccccc1`, the pEC50 was less than 4.95 and the pIC50 is less than 4.95.

On to `CCCCCc1c(CCCC)c(=O)[nH]c2cc(CNCC(OC)OC)ccc12`, for which the pEC50 was less than 3.70 and the pIC50 is 4.96.

For `CC(=Nc1ccc([N+](=O)[O-])cc1)c1ccc(O)cc1`, the pEC50 was less than 3.70 and the pIC50 is 4.97.

On to `CC(=O)O[C@@H]1CN(S(=O)(=O)c2ccc(C)cc2)C[C@@H]1C1CCCCC1`, for which the pEC50 was less than 3.70 and the negative-log IC50 (pIC50) is 4.45.

Turning to `COc1ccccc1NCc1cccc2c(=O)c3ccc(Cl)cc3oc12`, the pEC50 is less than 3.82 and the pIC50 is 4.33.

Consider `O=C(O)C1CCC(c2ccc(Cl)cc2)N1` (stereo not drawn), for which the pEC50 was less than 3.70 and the negative-log IC50 (pIC50) was less than 3.70.

On to `C/C(CC(=O)NCCc1ccccc1)=N\NS(=O)(=O)c1ccc(C)cc1`, for which the pEC50 is less than 3.46 and the negative-log IC50 (pIC50) is 3.47.

Take `Cc1ccc(S(=O)(=O)c2ccc(C)cc2[N+](=O)[O-])cc1`: the pEC50 was less than 4.61 and the pIC50 was less than 4.61.

With `CN(C)C(=S)Nc1ccc(Cl)cc1`, the pEC50 was less than 3.70 and the pIC50 was 4.28.

`N#CC1Cc2cc3c(cc21)OCO3` (stereo not drawn): the pEC50 was less than 3.70 and the pIC50 is less than 3.70.

`OC1(C#CCN2CCCC2)c2ccccc2Sc2ccccc21.[C-]#[O+].[C-]#[O+].[C-]#[O+].[C-]#[O+].[C-]#[O+].[C-]#[O+].[Co].[Co]`: the pEC50 was less than 3.70 and the pIC50 was 5.38.

For the compound `COc1ccc(C(=O)O)c2c(=O)c3ccccc3[nH]c12`, the result was inactive.

For the compound `COC(C(=O)C(O)C(C)O)C1Cc2cc3cc(OC4CC(OC5CC(O)C(O)C(C)O5)C(O)C(C)O4)c(C)c(O)c3c(O)c2C(=O)C1OC1CC(OC2CC(O)C(OC3CC(C)(O)C(O)C(C)O3)C(C)O2)C(O)C(C)O1` (stereo not drawn), the outcome was inactive.

With `CC(Oc1ccc(OCC2CCCCC2)cc1)C(=O)OCC(=O)c1ccc(-c2ccccc2)cc1` (stereo not drawn), the pEC50 is less than 4.68 and the pIC50 is less than 4.68.

In the case of `O/N=C1/C(=C/c2ccc(Cl)c(Cl)c2)CCCC1C(NO)c1ccc(Cl)c(Cl)c1` (stereo not drawn), the pEC50 is less than 5.50 and the negative-log IC50 (pIC50) was less than 5.50.

As to `O=c1[nH]nc(Cn2c3ccc(Br)cc3c3nc4ccccc4nc32)n1C1CCCCC1`, the pEC50 is less than 3.70 and the pIC50 is 3.76.

With `COc1ccc(Nc2c3sc4cc(OC)ccc4nc-3c3ccccc3c2=O)cc1`, the pEC50 is less than 4.00 and the pIC50 was less than 4.00.

As for `COc1cc(Cc2nnc(Nc3ccccc3)[nH]c2=O)cc(OC)c1OC`, the pEC50 is less than 3.59 and the pIC50 was less than 3.59.

Take `Nc1nc2c(nc(N)n2Cc2ccccc2)c(=O)[nH]1`: the pEC50 is less than 4.13 and the pIC50 is less than 4.13.

With `COc1ccc(-n2c(N)c(C#N)c(C#N)c2-c2cccc([N+](=O)[O-])c2)cc1`, the pEC50 is less than 3.70 and the pIC50 is 3.73.

As for `Nc1nc(Cl)cc(NCCCCCCCCNc2cc(Cl)nc(N)n2)n1`, the outcome was inactive.

Turning to `CCN(CC)CC1CCCCN1CC(=O)N1c2ccccc2NC(=O)c2ccccc21` (stereo not drawn), the pEC50 was less than 3.70 and the negative logarithm of the IC50 (pIC50) is less than 3.70.

Turning to `CNc1nc(N)c(N=O)c(Nc2ccc(Br)cc2)n1`, the pEC50 is less than 3.70 and the negative logarithm of the IC50 (pIC50) was 3.77.

As for `COc1ccc2[nH]c3c(c2c1)CCc1ccccc1-3`, the outcome was inactive.

Turning to `O=C1Nc2c(ccc(Cl)c2I)C1=O`, the pEC50 was less than 3.79 and the pIC50 was 4.51.

Consider `Cc1cn(C2CC(CO)N(CCO)O2)c(=O)[nH]c1=O` (stereo not drawn), for which the pEC50 was less than 3.70 and the pIC50 is less than 3.70.

As to `CN(C)c1ccc(/C=c2\[nH]c(=O)/c(=C\c3ccc(N(C)C)cc3)[nH]c2=O)cc1`, the pEC50 is less than 4.30 and the pIC50 is less than 4.30.

Regarding `CC(=O)C1Cn2c(=O)c3cc4ccccc4cc3c(=O)n2C=C1C` (stereo not drawn), the pEC50 is less than 3.95 and the pIC50 is less than 3.95.

Take `C[C@@]1(O)C2CC3CC1(c1ccccc1)CC(/C3=N/O)/C2=N\O` (stereo partly drawn): the pEC50 was less than 3.70 and the negative logarithm of the IC50 (pIC50) is less than 3.70.

On to `CC(C)=NOC(=O)Nc1cccc2c1OCO2`, for which the pEC50 was less than 3.70 and the pIC50 was less than 3.70.

`O=c1n(CC2CO2)c(=O)n(CC2CO2)c(=O)n1CC1CO1` (stereo not drawn): the pEC50 is less than 3.08 and the pIC50 was 5.82.

Take `CN(C)c1ccc2c(c1)-c1cc(N(C)C)ccc1C2=CC=C1C(=O)NC(=O)NC1=O`: the pEC50 is less than 5.47 and the pIC50 was less than 5.47.

As for `O=C1CC(c2[nH]nc3ccccc23)C(=O)N1c1ccccc1` (stereo not drawn), the result was inactive.

Consider `Nc1c2ccccc2nc2ccc(C(=O)Nc3ccc(S(N)(=O)=O)cc3)cc12`, for which the pEC50 is less than 3.70 and the pIC50 was less than 3.70.

Consider `COC(=O)C(C(=O)C(=O)Nc1ccc(C)cc1C)c1csc(-n2nc(-c3ccccc3)cc2-c2ccccc2)n1` (stereo not drawn), for which the pEC50 is less than 3.80 and the pIC50 was 4.09.

Regarding `O=C1C(CN2CCOCC2)CCCC1CN1CCOCC1` (stereo not drawn), the pEC50 was less than 2.37, the outcome was inactive and the pIC50 is 5.87.

Values taken from PubChem BioAssay AID179 (DTP/NCI, 2004).
